The results in this text go back to patent US12600709B2, “Nonpeptide somatostatin type 5 receptor agonists and uses thereof” (Crinetics Pharmaceuticals, Inc., priority 2019, dated 2026).

For assay [1], the target named is T1, human somatostatin receptor subtype 2 (Homo sapiens, UniProt P30874).
T1 construct: expressed in transfected cells
Briefly: cAMP assay for SST2R (inhibition of cAMP in CHO-K1 cells). Type of assay: cell-based. The settings on record: Table B; inhibition of cAMP via human SST2 receptor; read-out: SST2 potency. The text has this: General overview: All five SSTR subtypes are Gi coupled G-protein coupled receptors (GPCRs) that lead to decreases in intracellular cyclic AMP (cAMP) when activated by an agonist. Therefore, measurement of intracellular cAMP levels can be used to assess whether compounds of the invention are agonists of SSTR subtypes (John Kelly, Troy Stevens, W. Joseph Thompson, and Roland Seifert, Current Protocols in Pharmacology, 2005, 2.2.1-2.2). One example of an intracellular cAMP assay is described below.
cAMP Assay Protocol for SST2R:
Four days prior to the assay, 5,000 Chinese hamster ovary cells (CHO-K1, ATCC #CCL-61) stably expressing the human somatostatin receptor subtype 2 are plated in each well of a 96-well tissue culture-treated plate in Ham's F12 growth media (ThermoFisher #10-080-CM) supplemented with 10% donor bovine serum (Gemini Bio-Products #100-506), 100 U/mL penicillin; 100 μg/mL streptomycin; 2 mM L-glutamine (Gemini Bio-Products #400-110) and 0.2 mg/mL hygromycin B (GoldBio #31282-04-9). The cells are cultured at 37° C., 5% CO2 and 95% humidity. On the day of the assay, the media is aspirated and the cells are treated with 50 μL of 1.6 μM NKH477 (Sigma #N3290) plus various dilutions of compounds of the invention in assay buffer [1× Hank's Balanced Salt Solution (ThermoFisher #SH3058802), 0.5 mM HEPES pH 7.4, 0.1% bovine serum albumin, 0.2 mM 3-Isobutyl-1-methylxanthine (IBMX, VWR #200002-790)]. The cells are incubated for 20 minutes at 37° C. […] The cells are treated with 50 μL of lysis buffer (HRTF cAMP kit, Cisbio). The lysate is transferred to 384-well plates and cAMP detection and visualization antibodies are added and incubated for 1-24 hours at room temperature. The time-resolved fluorescent signal is read with a Tecan M1000Pro multiplate reader. The intracellular cAMP concentrations are calculated by regression to a standard curve and are plotted vs. the concentration of the compounds of the invention and the EC50 of the compounds are calculated using standard methods. All data manipulations are in GraphPad Prism v6 or v7.
Background: Changes in cAMP serve as a functional read-out for many G protein-coupled receptors.

The target of assay [2] is T2, human somatostatin receptor subtype 5 (Homo sapiens, UniProt P35346).
T2 construct: expressed in transfected cells
Briefly: cAMP assay for SST5R (inhibition of cAMP in CHO-K1 cells). Type of assay: cell-based. The settings on record: for pEC50: inhibition of cAMP via human SST5 receptor, read-out: SST5 potency; for Fold selectivity for SST5 vs SST2: class symbols, SST5 receptor over SST2 receptor. In short, it runs like this:
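CHO-K1 cells stably expressing human SSTR5 were treated 20 min at 37 °C with compounds plus 1.6 μM NKH477 in HBSS, 0.5 mM HEPES pH 7.4, 0.1% BSA, 0.2 mM IBMX. Lysate cAMP measured by HTRF against a standard curve; EC50 from cAMP-versus-concentration plots.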

pEC50: −log10 of the molar value. Like-named read-outs stand apart in the source and are kept apart here.

T1 sequence (P30874 whole entry): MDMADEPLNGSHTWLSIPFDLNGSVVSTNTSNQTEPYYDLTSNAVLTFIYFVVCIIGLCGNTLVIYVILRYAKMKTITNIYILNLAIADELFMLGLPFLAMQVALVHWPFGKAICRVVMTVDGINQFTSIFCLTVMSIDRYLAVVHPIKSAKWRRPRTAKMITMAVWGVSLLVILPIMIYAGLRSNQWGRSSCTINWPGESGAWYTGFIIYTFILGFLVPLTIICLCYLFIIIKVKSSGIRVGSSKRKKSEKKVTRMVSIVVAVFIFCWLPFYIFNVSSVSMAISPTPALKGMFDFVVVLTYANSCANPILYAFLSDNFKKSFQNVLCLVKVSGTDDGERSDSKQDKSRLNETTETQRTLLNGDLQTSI
T2 sequence (P35346 whole entry): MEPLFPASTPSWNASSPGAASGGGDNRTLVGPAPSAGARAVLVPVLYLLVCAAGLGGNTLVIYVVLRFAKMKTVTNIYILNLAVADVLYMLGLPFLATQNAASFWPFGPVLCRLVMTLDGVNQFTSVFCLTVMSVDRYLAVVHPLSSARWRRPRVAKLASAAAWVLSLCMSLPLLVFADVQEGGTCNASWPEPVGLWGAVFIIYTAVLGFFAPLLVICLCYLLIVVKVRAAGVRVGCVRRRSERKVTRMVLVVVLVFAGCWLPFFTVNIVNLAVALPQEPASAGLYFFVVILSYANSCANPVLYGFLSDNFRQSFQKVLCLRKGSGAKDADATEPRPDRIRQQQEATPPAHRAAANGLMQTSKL

Regarding `Cc1cccc(NC(=O)c2cncc(-c3ccnc(C#N)c3)c2N2CC[C@](C)(N)C2)c1` [1-5, 4-[(3S)-3-amino-3-methylpyrrolidin-1-yl]-2′-cyano-N-(3-methylphenyl)-[3,4′-bipyridine]-5-carboxamide], the pEC50 in assay [1] was 6.00 to 7.00; in assay [2] (Table A) it was more than 8.00; in assay [2] (Table B) it was more than 8.00. In assay [2] (Table B), the “Fold selectivity for SST5 vs SST2” value is “+++ (+++=>500)”.

As for `Cc1cc(C)cc(NC(=O)c2cncc(-c3ccnc(C)c3)c2N2CC[C@](C)(N)C2)c1` [1-6, 4-[(3S)-3-amino-3-methylpyrrolidin-1-yl]-N-(3,5-dimethylphenyl)-2′-methyl-[3,4′-bipyridine]-5-carboxamide], the values for the pEC50 in assay [1], in assay [2] (Table A) and in assay [2] (Table B) were 7.00 to 8.00, more than 8.00 and more than 8.00, respectively. Further, the “Fold selectivity for SST5 vs SST2” value in assay [2] (Table B) is given as “++ (++=100 to 499)”.

For `C[C@]1(N)CCN(c2c(C(=O)NC3CCC(F)(F)CC3)cncc2-c2cccc(C#N)c2)C1` [1-10, 4-[(3S)-3-amino-3-methylpyrrolidin-1-yl]-5-(3-cyanophenyl)-N-(4,4-difluorocyclohexyl)pyridine-3-carboxamide], the results for the pEC50 in assay [1], in assay [2] (Table A) and in assay [2] (Table B) were less than 6.00, 7.00 to 8.00 and 7.00 to 8.00, respectively. In assay [2] (Table B), the “Fold selectivity for SST5 vs SST2” value is listed as “++ (++=100 to 499)”.

In the case of `Cc1cc(C)cc(-c2cncc(C(=O)NC3CCCC(C)(C)C3)c2N2CC[C@](C)(N)C2)c1` (stereo partly drawn) [1-11, 4-[(3S)-3-amino-3-methylpyrrolidin-1-yl]-N-(3,3-dimethylcyclohexyl)-5-(3,5-dimethylphenyl)pyridine-3-carboxamide], the pEC50 is less than 6.00 in assay [1], more than 8.00 in assay [2] (Table A) and more than 8.00 in assay [2] (Table B). The “Fold selectivity for SST5 vs SST2” value in assay [2] (Table B) is given as “+++ (+++=>500)”.

Turning to `Cc1cc(C)cc(-c2cncc(C(=O)NC3CCC(F)(F)CC3)c2N2CC[C@](C)(N)C2)c1` [1-12, 4-[(3S)-3-amino-3-methylpyrrolidin-1-yl]-N-(4,4-difluorocyclohexyl)-5-(3,5-dimethylphenyl)pyridine-3-carboxamide], the values for the pEC50 in assay [1], in assay [2] (Table A) and in assay [2] (Table B) were 6.00 to 7.00, more than 8.00 and more than 8.00, respectively. In addition, the “Fold selectivity for SST5 vs SST2” value in assay [2] (Table B) is “+++ (+++=>500)”.

Regarding `Cc1cc(F)cc(-c2cncc(C(=O)NC3CCC(F)(F)CC3)c2N2CC[C@](C)(N)C2)c1` [1-13, 4-[(3S)-3-amino-3-methylpyrrolidin-1-yl]-N-(4,4-difluorocyclohexyl)-5-(3-fluoro-5-methylphenyl)pyridine-3-carboxamide], the values for the pEC50 in assay [1], in assay [2] (Table A) and in assay [2] (Table B) were 6.00 to 7.00, more than 8.00 and more than 8.00, respectively. The “Fold selectivity for SST5 vs SST2” value in assay [2] (Table B) is listed as “+++ (+++=>500)”.

As for `C[C@]1(N)CCN(c2c(C(=O)NC3CCC(F)(F)CC3)cncc2-c2cc(F)cc(F)c2)C1` [1-16, 4-[(3S)-3-amino-3-methylpyrrolidin-1-yl]-N-(4,4-difluorocyclohexyl)-5-(3,5-difluorophenyl)pyridine-3-carboxamide], the pEC50 in assay [1] was 6.00 to 7.00; in assay [2] (Table A), more than 8.00; in assay [2] (Table B), more than 8.00. Also, the “Fold selectivity for SST5 vs SST2” value in assay [2] (Table B) is “+++ (+++=>500)”.

With `Cc1cc(F)cc(-c2cncc(C(=O)NC3CCc4ccccc43)c2N2CC[C@](C)(N)C2)c1` (stereo partly drawn) [1-17, 4-[(3S)-3-amino-3-methylpyrrolidin-1-yl]-N-(2,3-dihydro-1H-inden-1-yl)-5-(3-fluoro-5-methylphenyl)pyridine-3-carboxamide], the values for the pEC50 in assay [1], in assay [2] (Table A) and in assay [2] (Table B) were 6.00 to 7.00, more than 8.00 and more than 8.00, respectively. Further, the “Fold selectivity for SST5 vs SST2” value in assay [2] (Table B) is “++ (++=100 to 499)”.

On to `CCC1(NC(=O)c2cncc(-c3cc(C)cc(F)c3)c2N2CC[C@](C)(N)C2)CCC1` [1-19, 4-[(3S)-3-amino-3-methylpyrrolidin-1-yl]-N-(1-ethylcyclobutyl)-5-(3-fluoro-5-methylphenyl)pyridine-3-carboxamide], for which the pEC50 in assay [1] is 6.00 to 7.00; in assay [2] (Table A), more than 8.00; in assay [2] (Table B), more than 8.00. Moreover, the “Fold selectivity for SST5 vs SST2” value in assay [2] (Table B) was “++ (++=100 to 499)”.

Take `C[C@]1(N)CCN(c2c(C(=O)NC3CCC(F)(F)CC3)cncc2-c2cc(F)c(F)c(F)c2)C1` [1-20, 4-[(3S)-3-amino-3-methylpyrrolidin-1-yl]-N-(4,4-difluorocyclohexyl)-5-(3,4,5-trifluorophenyl)pyridine-3-carboxamide]: the figures for the pEC50 in assay [1], in assay [2] (Table A) and in assay [2] (Table B) were 6.00 to 7.00, more than 8.00 and more than 8.00, respectively. Besides, the “Fold selectivity for SST5 vs SST2” value in assay [2] (Table B) is on record as “+++ (+++=>500)”.

As to `C[C@]1(N)CCN(c2c(C(=O)NC34CC(C3)C4)cncc2-c2cc(F)cc(F)c2)C1` [1-21, 4-[(3S)-3-amino-3-methylpyrrolidin-1-yl]-N-{bicyclo[1.1.1]pentan-1-yl}-5-(3,5-difluorophenyl)pyridine-3-carboxamide], the results for the pEC50 in assay [1], in assay [2] (Table A) and in assay [2] (Table B) were 7.00 to 8.00, more than 8.00 and more than 8.00, respectively. For the same compound, the “Fold selectivity for SST5 vs SST2” value in assay [2] (Table B) is listed as “++ (++=100 to 499)”.

For `CC1(C)CC(NC(=O)c2cncc(-c3cc(F)cc(F)c3)c2N2CC[C@](C)(N)C2)C1` [1-22, 4-[(3S)-3-amino-3-methylpyrrolidin-1-yl]-5-(3,5-difluorophenyl)-N-(3,3-dimethylcyclobutyl)pyridine-3-carboxamide], the values for the pEC50 in assay [1], in assay [2] (Table A) and in assay [2] (Table B) were 6.00 to 7.00, more than 8.00 and more than 8.00, respectively. The “Fold selectivity for SST5 vs SST2” value in assay [2] (Table B) is on record as “++ (++=100 to 499)”.

With `Cc1cc(F)cc(-c2cncc(C(=O)NC(C)C3CC3)c2N2CC[C@](C)(N)C2)c1` (stereo partly drawn) [1-24, 4-[(3S)-3-amino-3-methylpyrrolidin-1-yl]-N-(1-cyclopropylethyl)-5-(3-fluoro-5-methylphenyl)pyridine-3-carboxamide], the pEC50 is 7.00 to 8.00 in assay [1], more than 8.00 in assay [2] (Table A) and more than 8.00 in assay [2] (Table B). Also, the “Fold selectivity for SST5 vs SST2” value in assay [2] (Table B) is “+++ (+++=>500)”.

For `Cc1cc(F)cc(-c2cncc(C(=O)NC(C3CC3)C3CC3)c2N2CC[C@](C)(N)C2)c1` [1-25, 4-[(3S)-3-amino-3-methylpyrrolidin-1-yl]-N-(dicyclopropylmethyl)-5-(3-fluoro-5-methylphenyl)pyridine-3-carboxamide], the pEC50 in assay [1] is 6.00 to 7.00; in assay [2] (Table A) it was more than 8.00; in assay [2] (Table B), more than 8.00. In addition, in assay [2] (Table B), the “Fold selectivity for SST5 vs SST2” value is “+++ (+++=>500)”.

Turning to `C[C@]1(N)CCN(c2c(C(=O)NC3CC(F)(F)C3)cncc2-c2cc(F)cc(F)c2)C1` [1-30, 4-[(3S)-3-amino-3-methylpyrrolidin-1-yl]-N-(3,3-difluorocyclobutyl)-5-(3,5-difluorophenyl)pyridine-3-carboxamide], the pEC50 is 6.00 to 7.00 in assay [1], more than 8.00 in assay [2] (Table A) and more than 8.00 in assay [2] (Table B). The “Fold selectivity for SST5 vs SST2” value in assay [2] (Table B) is listed as “++ (++=100 to 499)”.

`CCC(CC)NC(=O)c1cncc(-c2cc(F)cc(F)c2)c1N1CC[C@](C)(N)C1` [1-31, 4-[(3S)-3-amino-3-methylpyrrolidin-1-yl]-5-(3,5-difluorophenyl)-N-(pentan-3-yl)pyridine-3-carboxamide]: the pEC50 in assay [1] is 6.00 to 7.00; in assay [2] (Table A) it was more than 8.00; in assay [2] (Table B) it was more than 8.00. Besides, the “Fold selectivity for SST5 vs SST2” value in assay [2] (Table B) was “++ (++=100 to 499)”.
